Patent US6130248A, “Tricarboxylic acid-containing oxyalkyl esters and uses thereof” (Bar-ILAn University, priority 1996, dated 2000)

How the values were obtained:
neoplastic cells = details: in vitro; cited from earlier work
[1] = system: c-myc in HL-60 promyelocytic leukemia; details: cited from earlier work
cancer = cancer patients; cited from earlier work
[2] = system: P3HR-1 EBV-positive lymphoma cells; assay: [3H]-thymidine incorporation in EBV-positive lymphoma cells; format: cell-based, human; details: 72 hours
Protocol: The effect of GOMB to AB was compared on EBV virus-associated tumors. EBV-positive cells from P3HR-1, a human lymphoma cell line, were incubated in growth medium with the specified concentration of GOMB, AB, ganciclovir (GC), or combination of these, for 72 hours, seeded in 96-well plates and pulsed with 1 μCi [^3 H]-thymidine/well during the last 16 hours of exposure to the compounds. Cells were harvested with a cell harvester, using glass microfiber filters. The incorporation of [^3 H]-thymidine was determined by retention of the acid insoluble fraction on filters and is expressed as CPM.

[3] = system: cancer cell lines (CFPAC, HL-60, HT-29, MCF7); assay: SRB cell proliferation assay, all cell lines together; format: cell-based
Protocol: (§1) The inhibition of cell proliferation was measured in the indicated cancer cell lines using the sulforhoamine B (SRB) assay as described by Monks et al., J. Natl. Can. Inst. […] The SRB assay is used to screen for anti-cancer drugs.

K562 cells (HbF) [4] = assay: HbF synthesis in K562 cells (ion-exchange HPLC); format: cell-based, human
Protocol: (§2) K562 cells: K562 is an erthroblast cell line that develops some properties of erythroid, megakaryocyte or monocyte cells, depending on the specific stimulus, when induced by different chemicals. K562 cells were grown in RPMI with 10% FCS, supplemented with 2 mM glutamine. Cells were incubated at 37° C. in a humidified, 5% CO2 incubator.

[5] = system: 53 primary tumor cell lines; assay: Inhibition of clonogenicity of primary tumor cells; format: cell-based, human
Description: The tested tumor cells were from 11 non-small cell lung carcinomas, 10 breast carcinomas, 10 gastric carcinomas, 10 ovarian carcinomas, and 10 CNS tumors.

[6] = system: erythroid cells from peripheral blood (HbF); assay: HbF in cultured erythroid cells; format: cell-based; details: Homo sapiens; 0.2 mM, relative to untreated control cultures; read-out: increase of HbF in cultured erythroid cells
Protocol: (§3) Hb Measurement: HB was measured by benzidine staining of K562 cells after 5 days exposure to GOMB or AB according to the procedure of Fibach et al. (1989) [full cite]. Quantitative measurement of HbF in K562 culture or human erythroid cultures was determined by ion-exchange high pressure liquid chromatography (HPLC) as described by Fibach et al., Blood 81:1630-1635, 1993.
Erythroid cells: Erythroid cells were isolated from peripheral blood of healthy individuals by the method of Fibach (1993).

HT-29 cells = assay: SRB cell proliferation assay; format: cell-based; details: Homo sapiens; HT-29, SRB
Protocol: as §1

HL-60 cells [7] = assay: SRB cell proliferation assay; format: cell-based; details: Homo sapiens; HL-60, SRB
Protocol: as §1

CFPAC cells = assay: SRB cell proliferation assay; format: cell-based
Protocol: as §1

MCF7 cells = assay: SRB cell proliferation assay; format: cell-based; details: Homo sapiens
Protocol: as §1

HL-60 cells [8] = assay: Induction of apoptosis (propidium iodide, flow cytometry); format: cell-based, human; details: 3 days
Protocol: (§4) Apoptosis was measured as described by Telford et al., 1991, Cell Physiol. 24:447-459, in HL-60 cells and in the human erthroblastic cell line, K-562. Cells were treated with COMB for 3 days, fixed, stained with propidium iodine and analyzed by flow cytometrly for cell cycle distribution. […] This region consisted of cells with fragmented DNA.

K-562 cells = assay: as above; format: cell-based, human; details: 3 days
Protocol: as §4

[9] = system: established tumor cell lines; assay: Clonogenicity of established tumor cell lines, all lines together; format: cell-based, human; details: all cell lines
Protocol: (§5) Inhibition of tumor growth was tested using cell lines as follows: […]

K562 cells (HbF) [10] = assay: Hb-containing K562 cells by benzidine staining; format: cell-based, human; details: 5 days
Protocol: as §3, §2

MCF-7 cells (WAF) = assay: Apoptosis in breast cancer cells, staining with WAF antibody / Western blot; format: cell-based, human
Protocol: Induction of apoptosis by COMB and AB in MCF-7 cells was evaluated by staining cells with the WAF antibody and by Western blot analysis as described by Bacus et al., 1996, Oncogene 12:2535-2547.

[11] = system: MCF7-WT (Breast Carcinoma); assay: Clonogenicity of established tumor cell lines (soft agar); format: cell-based, human
Protocol: as §5

NBAS-5 (Neuroblastoma) = assay: as above; format: cell-based, human
Protocol: as §5

PC3 (Prostate Carcinoma) = assay: as above; format: cell-based, human
Protocol: as §5

SK-N-SH (Neuroblastoma) = assay: as above; format: cell-based, human
Protocol: as §5

SMS-KAN (Neuroblastoma) = assay: as above; format: cell-based, human
Protocol: as §5

K562 (Erytholeukemia) = assay: as above; format: cell-based, human
Protocol: as §5

LA1-5S (Neuroblastoma) = assay: as above; format: cell-based, human
Protocol: as §5

SK-N-MC (Neuroblastoma) = assay: as above; format: cell-based, human
Protocol: as §5

[12] = system: MCF7-40F (Breast Carcinoma); assay: as above; format: cell-based, human
Protocol: as §5

NBL-W-N (Neuroblastoma) = assay: as above; format: cell-based, human
Protocol: as §5

[13] = system: LNCaP (Prostate Carcinoma); assay: as above; format: cell-based, human
Protocol: as §5

IMR-32 (Neuroblastoma) = assay: as above; format: cell-based, human
Protocol: as §5

[14] = system: Au565 breast carcinoma cells; assay: Differentiation by lipid staining; format: cell-based, human; details: 10 μM
Description: Lipid staining and/or immunochemical staining of casein can be used as a marker for cellular differentiation of breast cancer cells (Bacus et al., Md. Carcin. 3:350-362, 1990). Casein detection can be done by histochemical staining of breast cancer cells using a human antibody to human casein as described by Cheung et al., J. Clin. Invest. 75:1722-1728,which is incorporated by reference in its entirety.
In the case of the human breast carcinoma cell line Au565, 100%. Of the cells treated with 10 μM GOMB were positive for lipid staining whereas less than 1% of cells treated with the same concentration of AB were positive for lipid staining.

[15] = system: colon carcinoma, leukemia and retinoblastoma cell lines; details: in vitro; cited from earlier work
[16] = Homo sapiens, MCF7-WT clonogenicity
[17] = Homo sapiens, NBAS-5 clonogenicity
[18] = Homo sapiens, PC3 clonogenicity
[19] = Homo sapiens, SK-N-SH clonogenicity
[20] = Homo sapiens, SMS-KAN clonogenicity
[21] = Homo sapiens, K562 clonogenicity
[22] = Homo sapiens, LA1-5S clonogenicity
[23] = Homo sapiens, SK-N-MC clonogenicity
[24] = Homo sapiens, MCF7-40F clonogenicity
[25] = Homo sapiens, NBL-W-N clonogenicity
[26] = Homo sapiens, LNCaP clonogenicity
[27] = Homo sapiens, IMR-32 clonogenicity

## CCCC(=O)O [BA, Butyric acid]
Neoplastic cells
  differentiating and antiproliferative activity: potent differentiating and antiproliferative agent in a wide spectra of neoplastic cells
[1]
  expression of c-myc: decrease in the expression
cancer
  clinical antitumor efficacy: minimal or transient efficacy

## CCCC(=O)OCOC(=O)CCCC(=O)O [GOMB, mono-(butyroyloxymethyl)glutarate]
[2]
  potency relative to AB in inhibiting EBV-positive lymphoma cells: 10 fold
[3]
  activity relative to AB by IC50 and IC90 values: at least 100 fold
K562 cells (HbF) [4]; 0.01 mM
  HbF Synthesis in K562 Cells: 1.54 µg/mL
K562 cells (HbF) [4]; 0.05 mM
  HbF Synthesis in K562 Cells: 3.21 µg/mL
K562 cells (HbF) [4]; 0.10 mM
  HbF Synthesis in K562 Cells: 5.0 µg/mL
[5]; Homo sapiens
  IC50: 34 µM
  IC90: 78 µM
[5]; average
  AB/GOMB IC50 Ratio: 13.9
  AB/GOMB IC90 Ratio: 27.3
[6]
  activation at 200 µM: 49.5%
HT-29 cells
  IC50: 98.2 µM
  IC90: 123 µM
HL-60 cells [7]
  IC50: 24.5 µM
  IC90: 53.6 µM
CFPAC cells
  IC50: 32.5 µM
  IC90: 41 µM
MCF7 cells
  IC50: 109 µM
  IC90: 218 µM
HL-60 cells [8]; 5.0 μM
  % apoptotic cells HL-60: 9.4%
HL-60 cells [8]; 12.5 μM
  % apoptotic cells HL-60: 14.9%
HL-60 cells [8]; 25.0 μM
  % apoptotic cells HL-60: 15.8%
HL-60 cells [8]; 37.5 μM
  % apoptotic cells HL-60: 36.3%
K-562 cells; 12.5 μM
  % apoptotic cells K-562: 9%
K-562 cells; 25.0 μM
  % apoptotic cells K-562: 18%
[9]
  ratio of IC50 AB:IC50 GOMB, median: 28.5
  ratio of IC90 AB:IC90 GOMB, median: 53
  ratio of IC90 AB:IC90 GOMB, range: 26-342 fold
K562 cells (HbF) [10]; 0.01 mM
  Percentage K562 Cells Containing HbF: 6.3 ± 1.15%
K562 cells (HbF) [10]; 0.05 mM
  Percentage K562 Cells Containing HbF: 12.3 ± 5.3%
K562 cells (HbF) [10]; 0.10 mM
  Percentage K562 Cells Containing HbF: 29%
MCF-7 cells (WAF); 10 μM
  % Cells Expressing WAF: 36%
MCF-7 cells (WAF); 25 μM
  % Cells Expressing WAF: 34%
MCF-7 cells (WAF); 50 μM
  % Cells Expressing WAF: 79%
MCF-7 cells (WAF); 100 μM
  % Cells Expressing WAF: 81%
MCF-7 cells (WAF); versus 13% in the controls
  increase in percentage of cells expressing WAF: 623%
MCF-7 cells (WAF); versus AB
  concentration inducing apoptosis, lower than AB: 10 fold
[11]; [16]
  IC50: 43.5 µM
  IC90: 97 µM
[11]; MCF7-WT
  AB/GOMB IC50 Ratio: 34.5
  AB/GOMB IC90 Ratio: 97.7
NBAS-5 (Neuroblastoma); [17]
  IC50: 16 µM
  IC90: 38 µM
NBAS-5 (Neuroblastoma); NBAS-5
  AB/GOMB IC50 Ratio: 23.2
  AB/GOMB IC90 Ratio: 343
PC3 (Prostate Carcinoma); [18]
  IC50: 34.9 µM
  IC90: 96.1 µM
PC3 (Prostate Carcinoma); PC3
  AB/GOMB IC50 Ratio: 6.48
  AB/GOMB IC90 Ratio: 46.6
SK-N-SH (Neuroblastoma); [19]
  IC50: 28 µM
  IC90: 95 µM
SK-N-SH (Neuroblastoma); SK-N-SH
  AB/GOMB IC50 Ratio: 35.6
  AB/GOMB IC90 Ratio: 37.8
SMS-KAN (Neuroblastoma); [20]
  IC50: 27 µM
  IC90: 80 µM
SMS-KAN (Neuroblastoma); SMS-KAN
  AB/GOMB IC50 Ratio: 42
  AB/GOMB IC90 Ratio: 26
K562 (Erytholeukemia); [21]
  IC50: 43.3 µM
  IC90: 97 µM
K562 (Erytholeukemia); K562
  AB/GOMB IC50 Ratio: 17.8
  AB/GOMB IC90 Ratio: 68.6
LA1-5S (Neuroblastoma); [22]
  IC50: 39 µM
  IC90: 59 µM
LA1-5S (Neuroblastoma); LA1-5S
  AB/GOMB IC50 Ratio: 42
  AB/GOMB IC90 Ratio: 45
SK-N-MC (Neuroblastoma); [23]
  IC50: 16 µM
  IC90: 35 µM
SK-N-MC (Neuroblastoma); SK-N-MC
  AB/GOMB IC50 Ratio: 13.4
  AB/GOMB IC90 Ratio: 37.5
[12]; [24]
  IC50: 65.9 µM
  IC90: 85.3 µM
[12]; MCF7-40F
  AB/GOMB IC50 Ratio: 12.4
  AB/GOMB IC90 Ratio: 37.3
NBL-W-N (Neuroblastoma); [25]
  IC50: 25 µM
  IC90: 70 µM
NBL-W-N (Neuroblastoma); NBL-W-N
  AB/GOMB IC50 Ratio: 19.6
  AB/GOMB IC90 Ratio: 44
[13]; [26]
  IC50: 68.1 µM
  IC90: 107 µM
[13]; LNCaP
  AB/GOMB IC50 Ratio: 11.4
  AB/GOMB IC90 Ratio: 63
IMR-32 (Neuroblastoma); [27]
  IC50: 23 µM
  IC90: 41 µM
IMR-32 (Neuroblastoma); IMR-32
  AB/GOMB IC50 Ratio: 38
  AB/GOMB IC90 Ratio: 87
[14]
  cells positive for lipid staining: 100%

## CCCC(=O)[O-].[Na+] [SB, sodium butyrate]
[15]
  apoptosis: produce apoptosis
